Assay results published in US20030017186A1, “Carboxylic acid fluorides as pesticides” (priority 1999, published 2003).

What was measured:
Format in all cases: in vivo
[1] = tested on: Broad-horned flour beetle (Gnathocerus cornutus) larvae; assay: Fumigation test in glass vessel, broad-horned flour beetle larvae; conditions: GNATCO larvae; Example 7; ACF 53.0/54.6/0 g/m^3, second gas (SF) 43.6/41.4/39.8 g/m^3 (1st/2nd/3rd fumigation); 20.0/20.2/19.8 C.
From the text: (§1) a3) Broad-horned flour beetle (Gnathocerus cornutus)=GNATCO
(§2) The test organisms, separated by species, were placed into a glass vessel measuring 30 cm×30 cm×60 cm, which was sealed with a glass lid so as to be airtight. The adults and the larvae of the mealworm beetle (Tenebrio molitor) and the broad-horned flour beetle (Gnathocerus cornutus) were placed into small glass vessels approximately 5 cm in diameter, which were closed with a gauze lid and in which they could freely move about. The larvae of the rice weevil had burrowed into seeds of grain. The wood pest larvae were inserted into small blocks of wood measuring 5 cm×2.5 cm×2 cm. The openings were sealed with wads of cotton wool. Only one each of the larvae of the house longhorn beetle (Hylotrupes bajulus) was inserted into a piece of wood, while 6-8 larvae of the common furniture beetle (Anobium punctatum) were inserted into each piece of wood.
(§3) The respective gas was then introduced into the fumigation vessel through a gas line from a gas tank that contained the specified amount of gas. After a defined time period, the fumigation vessel was purged with compressed air. The discharged gas was purified by an attached gas scrubber.
(§4) The beetles were observed until they died. This point was recorded for each species. The larvae of the wood pests as well as the larvae of the rice weevil (Sitophilus oryzae) had to be picked out of the wood or the grain to check their condition. If any of the animals were still alive, the wooden test blocks remaining in the vessel were fumigated again and were reexamined after the corresponding time span had elapsed. The same number of animals in the untreated control was also checked at each point.
(§5) The vitality of the animals was checked at certain time intervals. The beetles could be observed through the fumigation vessel. This was also true for the larvae of the mealworm beetle and the broad-horned flour beetle. The wooden test blocks of the wood pest larvae were opened with hammer and chisel. Tweezers were used to pull the rice weevil larvae out of the grain seeds. The exact time intervals and the number of the evaluated pests were documented in the test results.

[2] = tested on: House longhorn beetle (Hylotrupes bajulus); assay: Fumigation test in glass vessel, house longhorn beetles; conditions: HYLOBA beetles; Example 7; ACF 53.0/54.6/0 g/m^3, second gas (SF) 43.6/41.4/39.8 g/m^3 (1st/2nd/3rd fumigation); 20.0/20.2/19.8 C.
From the text: (§6) b1) House longhorn beetle (Hylotrupes bajulus)=HYLOBA
as §2, §3, §4, §5

[3] = tested on: House longhorn beetle (Hylotrupes bajulus) larvae; assay: Fumigation test in glass vessel, house longhorn beetle larvae in wood blocks; conditions: HYLOBA larvae in wood blocks; Example 7; ACF 53.0/54.6/0 g/m^3, second gas (SF) 43.6/41.4/39.8 g/m^3 (1st/2nd/3rd fumigation); 20.0/20.2/19.8 C.
From the text: as §6, §2, §3, §4, §5

[4] = tested on: Common furniture beetle (Anobium punctatum) larvae; assay: Fumigation test in glass vessel, common furniture beetle larvae in wood blocks; conditions: ANOBPU larvae in wood blocks; Example 7; ACF 53.0/54.6/0 g/m^3, second gas (SF) 43.6/41.4/39.8 g/m^3 (1st/2nd/3rd fumigation); 20.0/20.2/19.8 C.
From the text: b2) Common furniture beetle (Anobium punctatum)=[…]
as §2, §3, §4, §5

[5] = tested on: Broad-horned flour beetle (Gnathocerus cornutus); assay: Fumigation test in glass vessel, broad-horned flour beetles; conditions: GNATCO beetles; Example 7; ACF 53.0/54.6/0 g/m^3, second gas (SF) 43.6/41.4/39.8 g/m^3 (1st/2nd/3rd fumigation); 20.0/20.2/19.8 C.
From the text: as §1, §2, §3, §4, §5

[6] = tested on: Mealworm beetle (Tenebrio molitor); assay: Fumigation test in glass vessel, mealworm beetles; conditions: TENEMO beetles; Example 7; ACF 53.0/54.6/0 g/m^3, second gas (SF) 43.6/41.4/39.8 g/m^3 (1st/2nd/3rd fumigation); 20.0/20.2/19.8 C.
From the text: (§7) a1) Mealworm beetle (Tenebrio molitor)=TENEMO
as §2, §3, §4, §5

[7] = tested on: Rice weevil (Sitophilus oryzae); assay: Fumigation test in glass vessel, rice weevils; conditions: SITTOR beetles; Example 7; ACF 53.0/54.6/0 g/m^3, second gas (SF) 43.6/41.4/39.8 g/m^3 (1st/2nd/3rd fumigation); 20.0/20.2/19.8 C.
From the text: a2) Rice weevil (Sitophilus oryzae)=SITTOR
as §2, §3, §4, §5

[8] = tested on: Mealworm beetle (Tenebrio molitor) larvae; assay: Fumigation test in glass vessel, mealworm beetle larvae; conditions: TENEMO larvae; Example 7; ACF 53.0/54.6/0 g/m^3, second gas (SF) 43.6/41.4/39.8 g/m^3 (1st/2nd/3rd fumigation); 20.0/20.2/19.8 C.
From the text: as §7, §2, §3, §4, §5

[9] = tested on: Saw-toothed grain beetle (Oryzaephilus surinamensis); assay: Fumigation test in glass vessel, saw-toothed grain beetles; conditions: ORYZSA beetles; Example 7; ACF 53.0/54.6/0 g/m^3, second gas (SF) 43.6/41.4/39.8 g/m^3 (1st/2nd/3rd fumigation); 20.0/20.2/19.8 C.
From the text: a4) Saw-toothed grain beetle (Oryzaephilus surinamensis)=ORYZSA
as §2, §3, §4, §5

## O=C(F)C(F)(F)Cl [CFACF, chlorodifluoroacetyl fluoride]
[1]
  Number alive, 30 min. after 1st Fumigation: 7
  Number alive, 1 hr. after 1st Fumigation: 7
  Number alive, 3 hrs. after 1st Fumigation: 0
  Number dead, 30 min. after 1st Fumigation: 8
  Number dead, 1 hr. after 1st Fumigation: 8
  Number dead, 3 hrs. after 1st Fumigation: 15
[2]
  Number alive, 30 min. after 1st Fumigation: 0
  Number dead, 30 min. after 1st Fumigation: 6
[3]
  Number alive, 1 hr. after 1st Fumigation: 5
  Number alive, 3 hrs. after 1st Fumigation: 5
  Number alive, 6 hrs after 1st Fumigation: 5
  Number dead, 1 hr. after 1st Fumigation: 0
  Number dead, 3 hrs. after 1st Fumigation: 0
  Number dead, 6 hrs after 1st Fumigation: 0
[4]
  Number alive, 1 hr. after 1st Fumigation: 6
  Number alive, 3 hrs. after 1st Fumigation: 3
  Number alive, 6 hrs after 1st Fumigation: 4
  Number dead, 1 hr. after 1st Fumigation: 0
  Number dead, 3 hrs. after 1st Fumigation: 3
  Number dead, 6 hrs after 1st Fumigation: 2
[5]
  Number alive, 30 min. after 1st Fumigation: 0
  Number dead, 30 min. after 1st Fumigation: 15
[6]
  Number alive, 30 min. after 1st Fumigation: 10
  Number alive, 1 hr. after 1st Fumigation: 10
  Number alive, 3 hrs. after 1st Fumigation: 10
  Number alive, 6 hrs after 1st Fumigation: 5
  Number dead, 30 min. after 1st Fumigation: 0
  Number dead, 1 hr. after 1st Fumigation: 0
  Number dead, 3 hrs. after 1st Fumigation: 0
  Number dead, 6 hrs after 1st Fumigation: 5
[7]
  Number alive, 30 min. after 1st Fumigation: 7
  Number alive, 1 hr. after 1st Fumigation: 7
  Number alive, 3 hrs. after 1st Fumigation: 0
  Number dead, 30 min. after 1st Fumigation: 8
  Number dead, 1 hr. after 1st Fumigation: 8
  Number dead, 3 hrs. after 1st Fumigation: 15
[8]
  Number alive, 30 min. after 1st Fumigation: 10
  Number alive, 1 hr. after 1st Fumigation: 10
  Number alive, 3 hrs. after 1st Fumigation: 0
  Number dead, 30 min. after 1st Fumigation: 0
  Number dead, 1 hr. after 1st Fumigation: 0
  Number dead, 3 hrs. after 1st Fumigation: 10
[9]
  Number alive, 30 min. after 1st Fumigation: 0
  Number dead, 30 min. after 1st Fumigation: 15
